Drawing on US5134137A, “Cephalosporin antibiotics” (The Upjohn Company, priority 1990, dated 1992), this text covers serum half life, MIC and ED50 for 4 compounds.

By MIC is commonly meant the least concentration at which growth counts as inhibited. One may read the ED50 as the dose at which the effect has come halfway, by size or by number of responders.

≈ marks a conversion by molar mass, not a printed value. Where two headings read alike, the source gives them in different places.

Series [1] can be described thus: Serum half life / duration of antibiotic action. The note with it: inferred from results against Salmonella typhimurium.
Series [2] has as its system Streptococcus dysgalactiae. Nature of the series: MIC, agar dilution, Streptococcus dysgalactiae. It counts as cell-based. The note with it: Streptococcus dysgalactiae; strain UC251; read-out: MIC. In a few lines:
(§1)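 Each organism receives an inoculum of approx. 10^3–10^4 CFU, taken from a 5% CO2 BHI subculture standardised to 0.5 McFarland and diluted 1:20. It is spotted on Mueller-Hinton agar containing the compound, then incubated for 16–18 h at 37 °C with CO2.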

In series [3] the test system is Corynebacterium pyogenes. Description: MIC, agar dilution, Corynebacterium pyogenes. It counts as cell-based. Particulars: strain 213-2; read-out: MIC. The procedure, abridged:
as §1
On the technique in general: In agar dilution, organisms are placed on agar that contains the substance at set levels.

Series [4] has as its system Streptococcus uberis. Nature of the series: MIC, agar dilution, Streptococcus uberis. In kind it is cell-based. The note with it: Streptococcus uberis, read-out: MIC. In a few lines:
as §1

The test system of series [5] is Streptococcus agalactiae. Nature of the series: MIC, agar dilution, Streptococcus agalactiae. It counts as cell-based. Particulars: Streptococcus agalactiae, read-out: MIC. In a few lines:
as §1

Series [6] concerns Enterococcus faecium. Description: MIC, agar dilution, Enterococcus faecium. In kind it is cell-based. The note with it: Enterococcus faecium; strain UC241; read-out: MIC. The procedure, abridged:
(§2)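 Agar dilution in Mueller-Hinton agar with antibiotic dilutions of 128 to 0.0625 µg/ml added to molten agar; compound amounts corrected for base activity from batch purity. Spot inoculum was ~10^3–10^4 CFU from a 4–6 h BHI culture adjusted to 0.5 McFarland and diluted 1:20. Plates were read after 16–18 h at 37 °C under CO2.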

The subject of series [7] is Pasteurella multocida. Description: MIC, agar dilution, Pasteurella multocida. It counts as cell-based. The note with it: Pasteurella multocida; strain UC9581; read-out: MIC. The procedure, abridged:
as §1

Series [8] concerns Enterococcus faecalis. Description: MIC, agar dilution, Enterococcus faecalis. It counts as cell-based. The note with it: Enterococcus faecalis; strain UC694; read-out: MIC. In a few lines:
as §2

In series [9] the test system is Pasteurella hemolytica. Description: MIC (minimum inhibitory concentration), agar dilution, Pasteurella hemolytica. In kind it is cell-based. Particulars: Pasteurella, read-out: MIC. In a few lines:
as §1

Series [10] relates to Salmonella typhimurium. Description: MIC, agar dilution, Salmonella typhimurium. In kind it is cell-based. Particulars: Salmonella enterica, read-out: MIC. In a few lines:
as §1

For series [11], the system named is Bordetella bronchiseptica. Nature of the series: MIC, agar dilution, Bordetella bronchiseptica. It counts as cell-based. Particulars: Bordetella bronchiseptica; strain UC6313; read-out: MIC. In a few lines:
as §1

For series [12], the system named is Salmonella choleraesuis. Nature of the series: MIC, agar dilution, Salmonella choleraesuis. It counts as cell-based. The note with it: Salmonella enterica, read-out: MIC. In a few lines:
as §1

Series [13] relates to Streptococcus bovis. Description: MIC, agar dilution, Streptococcus bovis. In kind it is cell-based. The note with it: Streptococcus equinus; strain UC6281; read-out: MIC. The procedure, abridged: as §1
Series [14] has as its system Micrococcus luteus. Nature of the series: MIC, agar dilution, Micrococcus luteus. The note with it: Micrococcus luteus; strain UC130; read-out: MIC. It counts as cell-based. The procedure, abridged: as §1
The test system of series [15] is Escherichia coli. Nature of the series: MIC, agar dilution, Escherichia coli. It counts as cell-based. The note with it: Escherichia coli, read-out: MIC. The procedure, abridged: as §1
For series [16], the system named is Pseudomonas aeruginosa. Nature of the series: MIC, agar dilution, Pseudomonas aeruginosa. Particulars: Pseudomonas aeruginosa, ATCC27853; strain ATCC 27853; read-out: MIC. It counts as cell-based. In a few lines:
as §1

Series [17] deals with Streptococcus suis. Description: MIC, agar dilution, Streptococcus suis. The note with it: Streptococcus suis; strain 650-2; read-out: MIC. It counts as cell-based. The procedure, abridged: as §1
For series [18], the system named is Staphylococcus aureus. Nature of the series: MIC, agar dilution, Staphylococcus aureus. It counts as cell-based. Particulars: Staphylococcus aureus, read-out: MIC. The procedure, abridged:
as §1

The test system of series [19] is P. hemolytica. Nature of the series: Systemic infection model in mice, ED50, P. hemolytica. In kind it is in vivo. The note with it: Mus musculus, sc, 144 h, strain UC6532, lactamase producing, subcutaneous, 0, 24, 48 hours post infection, 50% survival six days post infection, per day, read-out: ED50 (95% confidence limits). How it is done:
(§3) Experimental Infections and Antitiotic Treatment (for ED50 in mice tests).
(§4) Mice are infected and treated with the test antibiotic compound according to procedures described previously [Yancey, Jr., R. J. et at. supra].
(§5) The test antibiotic compound is administered subcutaneously immediately following infection, then at 24 hours and 48 hours post infection. The medium effective dose (ED50) number is determined for all infections. The ED50 value is defined as the calculated concentration of the test antibiotic compound in mg. of compound per kilogram of mouse body weight per day at which 50% of the animals survived six days post infection.

Series [20] has as its system Salmonella typhimurium. Description: Systemic infection model in mice, ED50, Salmonella typhimurium. It counts as in vivo. Particulars: Salmonella enterica, TYPHIMURIUM / UC6164, sc, 144 h, strain UC6164, lactamase producing, subcutaneous, 0, 24, 48 hours post infection, 50% survival six days post infection, per day, read-out: ED50 (95% confidence limits). How it is done: as §3, §4, §5

[21] abbreviates: TYPHIMURIUM / UC6162, strain UC6162.
Where [22] appears, read: TYPHIMURIUM / UC6164, strain UC6164.
[23] abbreviates: CHOLERAESUIS / UC6073, strain UC6073.
[24] abbreviates: CHOLERAESUIS / UC6077, strain UC6077.

`CO/N=C(\C(=O)N[C@@H]1C(=O)N2C(C(=O)O)=C(CSCC(N)=O)CS[C@H]12)c1csc(N)n1` [Example 7, 7-[2-(2-amino-1,3-thiazol-4-yl)-2-(methoxyimino)acetamido]-3-(aminocarbonylmethylthiomethyl)-3-cephem-4-carboxylic acid]: the serum half life entry in [1] is “longer serum half life”. The MIC is ≤ 0.06 µg/mL in series [2]; 16 µg/mL (≈ 32.9 µM) in [3]; 0.13 µg/mL (≈ 0.267 µM) in [4] (strain UC3946); 32 µg/mL (≈ 65.8 µM) in series [4] (strain UC6159); ≤ 0.06 µg/mL in [5] (strain UC3947); ≤ 0.06 µg/mL in series [5] (strain UC6892). In addition, the minimal inhibitory concentration (MIC) is > 32 µg/mL in series [6]; ≤ 0.06 µg/mL in series [7]; > 32 µg/mL in series [8]; ≤ 0.06 µg/mL in series [9] (strain UC6531); ≤ 0.06 µg/mL in series [9] (strain UC6532); ≤ 0.06 µg/mL in series [9] (strain UC9582). The MIC was 1 µg/mL (≈ 2.06 µM) in series [10] (setting [21]); 1 µg/mL (≈ 2.06 µM) in series [10] (setting [22]); > 32 µg/mL in series [11]; 1 µg/mL (≈ 2.06 µM) in series [12] (setting [23]); 2 µg/mL (≈ 4.11 µM) in series [12] (setting [24]); 0.13 µg/mL (≈ 0.267 µM) in series [13]. Moreover, the MIC in [14] is 0.25 µg/mL (≈ 0.514 µM); in series [15] (strain UC3784), 1 µg/mL (≈ 2.06 µM); in series [15] (strain UC6720), 1 µg/mL (≈ 2.06 µM); in series [15] (strain UC9670), 1 µg/mL (≈ 2.06 µM); in series [16], > 32 µg/mL; in [17], 0.13 µg/mL (≈ 0.267 µM). Besides, the MIC in series [18] (strain UC6093), in series [18] (strain UC6097) and in series [18] (strain UC9203) was 4 µg/mL (≈ 8.22 µM) throughout.

As for `CO/N=C(\C(=O)N[C@@H]1C(=O)N2C(C(=O)O)=C(CSSc3ccc([N+](=O)[O-])cc3)CS[C@H]12)c1csc(N)n1` [Example 18], the MIC is ≤ 0.06 µg/mL in series [2]; 0.25 µg/mL (≈ 0.429 µM) in [3]; 0.25 µg/mL (≈ 0.429 µM) in series [4] (strain UC3946); 8 µg/mL (≈ 13.7 µM) in [4] (strain UC6159); ≤ 0.06 µg/mL in series [5] (strain UC3947); ≤ 0.06 µg/mL in series [5] (strain UC6892). In addition, the minimal inhibitory concentration (MIC) was > 32 µg/mL in [6]; ≤ 0.06 µg/mL in [7]; > 32 µg/mL in [8]; 0.25 µg/mL (≈ 0.429 µM) in series [9] (strain UC6531); ≤ 0.06 µg/mL in series [9] (strain UC6532); ≤ 0.06 µg/mL in [9] (strain UC9582). In addition, the MIC is 4 µg/mL (≈ 6.86 µM) in series [10] (setting [21]); 2 µg/mL (≈ 3.43 µM) in series [10] (setting [22]); > 32 µg/mL in series [11]; 2 µg/mL (≈ 3.43 µM) in series [12] (setting [23]); 4 µg/mL (≈ 6.86 µM) in series [12] (setting [24]); ≤ 0.06 µg/mL in series [13]. Besides, the MIC in series [14] is ≤ 0.06 µg/mL; in series [15] (strain UC3784), 1 µg/mL (≈ 1.72 µM); in series [15] (strain UC6720) it was 2 µg/mL (≈ 3.43 µM); in [15] (strain UC9670), 1 µg/mL (≈ 1.72 µM); in series [16], > 32 µg/mL; in series [17] it was ≤ 0.06 µg/mL. Further, the minimum inhibitory concentration (MIC) in series [18] (strain UC6093), in series [18] (strain UC6097) and in [18] (strain UC9203) was 2 µg/mL (≈ 3.43 µM) throughout.

With `CO/N=C(\C(=O)N[C@@H]1C(=O)N2C(C(=O)O)=C(CSSC3CCCCC3)CS[C@H]12)c1csc(N)n1` [Example 19], the MIC was ≤ 0.06 µg/mL in series [2]; 0.5 µg/mL (≈ 0.92 µM) in [3]; 0.13 µg/mL (≈ 0.239 µM) in series [4] (strain UC3946); 8 µg/mL (≈ 14.7 µM) in series [4] (strain UC6159); ≤ 0.06 µg/mL in series [5] (strain UC3947); ≤ 0.06 µg/mL in [5] (strain UC6892). Besides, the MIC is > 32 µg/mL in series [6]; ≤ 0.06 µg/mL in series [7]; > 32 µg/mL in series [8]; 0.5 µg/mL (≈ 0.92 µM) in series [9] (strain UC6531); 0.5 µg/mL (≈ 0.92 µM) in series [9] (strain UC6532); 0.25 µg/mL (≈ 0.46 µM) in series [9] (strain UC9582). In addition, the MIC in series [10] (setting [21]) was 16 µg/mL (≈ 29.4 µM); in series [10] (setting [22]) it was 16 µg/mL (≈ 29.4 µM); in series [11], > 32 µg/mL; in series [12] (setting [23]) it was 8 µg/mL (≈ 14.7 µM); in [12] (setting [24]) it was 16 µg/mL (≈ 29.4 µM); in series [13], ≤ 0.06 µg/mL. Besides, the minimum inhibitory concentration (MIC) in [14] is ≤ 0.06 µg/mL; in series [15] (strain UC3784), 4 µg/mL (≈ 7.36 µM); in series [15] (strain UC6720), 8 µg/mL (≈ 14.7 µM); in [15] (strain UC9670) it was 4 µg/mL (≈ 7.36 µM); in [16], > 32 µg/mL; in [17], ≤ 0.06 µg/mL. Besides, the minimal inhibitory concentration (MIC) in [18] (strain UC6093), in series [18] (strain UC6097) and in series [18] (strain UC9203) was 1 µg/mL (≈ 1.84 µM) in each case.

Take `CC1(C)S[C@@H]2[C@H](NC(=O)[C@H](N)c3ccccc3)C(=O)N2[C@H]1C(=O)O` [ampicillin]: the ED50 in series [19] and in series [20] was > 100 mg/kg each time.
